Values joined by “and” are separate entries in the source; they are usually repeats but may differ in a detail not shown here. Equal entries are not always repeated. Where two headings read alike, the source gives them in different places.
Legend:
ER-α = molecular target: T1, ER-α (Homo sapiens, UniProt P03372); assay: ER-α ligand binding domain competitive binding with [3H]Estradiol
T1 sequence (P03372 311-547 limits assumed): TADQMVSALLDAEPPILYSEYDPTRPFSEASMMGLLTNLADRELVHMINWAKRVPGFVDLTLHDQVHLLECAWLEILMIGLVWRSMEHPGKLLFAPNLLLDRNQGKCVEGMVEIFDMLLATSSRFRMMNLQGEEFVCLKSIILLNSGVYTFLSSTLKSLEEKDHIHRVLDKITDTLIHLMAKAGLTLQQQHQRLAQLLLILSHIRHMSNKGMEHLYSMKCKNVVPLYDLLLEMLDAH

AKR1C3 [1] = molecular target: T2, AKR1C3 (Homo sapiens, UniProt P42330); assay: Purified AKR1C3 enzyme assay, [14C]-A'dione to testosterone, TLC based; assay type: biochemical; design: GST (N); made in house; host or cells: bacterial culture, IPTG induced (E. coli BL21-DE3 is named only for the crystallography preparation)
T2 sequence (P42330 1-323): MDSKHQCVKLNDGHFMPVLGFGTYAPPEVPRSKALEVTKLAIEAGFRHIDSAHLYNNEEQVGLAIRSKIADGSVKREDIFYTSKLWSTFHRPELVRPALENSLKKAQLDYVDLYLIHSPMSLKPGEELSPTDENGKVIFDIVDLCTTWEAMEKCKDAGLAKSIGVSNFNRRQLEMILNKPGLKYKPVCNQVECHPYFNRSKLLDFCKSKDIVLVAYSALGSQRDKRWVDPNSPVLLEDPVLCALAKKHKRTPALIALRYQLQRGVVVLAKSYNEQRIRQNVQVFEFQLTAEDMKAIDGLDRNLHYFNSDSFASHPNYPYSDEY
Protocol: Perkin Elmer; […] American Radiolabeled Chemicals, St. Louis, Mo.). The reaction was stopped by the addition of 400 μl ethyl acetate, vortexed, and spun for […] at 2000 rpm. The upper layer was transferred to a new tube and air dried. The pellet was resuspended in 25 μl of methanol, spotted on TLC plates and fractionated in TLC chamber with 3:1 chloroform:ethyl acetate. Once the mobile phase reached the top, the plates were dried and exposed to a phosphoimager screen overnight. […] Perkin Elmer) was incubated at 37° C. for 60 min. The reaction was stopped by the addition of 400 μl ethyl acetate, vortexed, and spun for […] at 2000 rpm. The upper layer was transferred to a new tube and air dried. The pellet was resuspended in 25 μl of methanol, spotted on TLC plates and fractionated in TLC chamber with 3:1 chloroform:ethyl acetate. Once the mobile phase reached the top, the plates were dried and exposed to a phosphoimager screen overnight.

ER-β = ER-β (Homo sapiens, UniProt Q92731); assay: ER-β ligand binding domain competitive binding with [3H]Estradiol
ER-beta = molecular target: T3, ER-beta (Homo sapiens, UniProt Q92731); assay: ER-beta transactivation (ERE-LUC luciferase) in HEK-293 cells; assay type: cell-based; details: for EC50: read-out: Agonist ER-β; for IC50: antagonist mode, in combination with estradiol, read-out: Antagonist ER-β;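 as to all read-outs here: HEK-293 cells transiently transfected with an ER-β expression plasmid and ERE-LUC reporter, firefly luciferase read-out normalized to co-transfected Renilla luciferase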
T3 construct: expressed in transfected cells; host or cells: HEK-293

ER-alpha = molecular target: T4, ER-alpha (Homo sapiens, UniProt P03372); assay: ER-alpha transactivation (ERE-LUC luciferase) in HEK-293 cells; assay type: cell-based; details: for EC50: read-out: Agonist ER-α; for IC50: antagonist mode, in combination with estradiol, read-out: Antagonist ER-α;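 as to all read-outs here: HEK-293 cells co-transfected with an ER-alpha expression plasmid, an ERE-driven firefly luciferase reporter and a CMV Renilla control, with the firefly signal normalized to Renilla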
T4 construct: expressed in transfected cells; host or cells: HEK-293
T4 sequence (P03372 1-595): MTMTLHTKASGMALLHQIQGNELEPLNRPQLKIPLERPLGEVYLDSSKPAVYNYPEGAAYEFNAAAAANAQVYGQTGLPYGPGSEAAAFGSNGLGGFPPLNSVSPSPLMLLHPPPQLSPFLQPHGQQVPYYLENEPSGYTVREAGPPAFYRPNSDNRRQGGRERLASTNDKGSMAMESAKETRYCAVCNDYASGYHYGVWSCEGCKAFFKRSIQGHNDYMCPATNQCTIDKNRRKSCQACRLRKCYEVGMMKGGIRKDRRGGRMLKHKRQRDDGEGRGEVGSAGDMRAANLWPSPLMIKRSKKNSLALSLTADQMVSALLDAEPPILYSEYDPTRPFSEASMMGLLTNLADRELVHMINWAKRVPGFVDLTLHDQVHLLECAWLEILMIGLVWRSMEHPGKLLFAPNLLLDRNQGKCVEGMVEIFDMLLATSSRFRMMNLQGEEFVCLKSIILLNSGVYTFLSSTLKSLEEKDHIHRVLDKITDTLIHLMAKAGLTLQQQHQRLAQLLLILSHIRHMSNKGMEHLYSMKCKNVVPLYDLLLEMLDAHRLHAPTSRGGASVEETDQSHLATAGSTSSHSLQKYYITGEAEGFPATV

AKR1C3 [2] = molecular target: T2, AKR1C3; assay: cell-based
Protocol: AKR1C3 expression was checked by Western blot to ensure that the cells over-express AKR1C3. […] Medium was changed to RPMI+1% csFBS without phenol red and maintained in this medium for 3 days to reduce basal hormone levels. […] The data was plotted in SigmaPlot (Systat Software Inc.) and the IC50 values for inhibitors were calculated.
HEK-293 cells stably transfected with AKR1C3 were plated in 24 well plates and were maintained in RPMI+1% csFBS without phenol red for 2 days to reduce the basal steroid levels.

[3] = Liver microsome incubation (HLM Phase I and Phase I + II), LC-MS/MS; assay type: in vitro ADME, human; details: for microsomal CLint: human, human liver microsomes
Protocol: Stock solutions of prespective AKR1C3 inhibitors were prepared in DMSO at 5 mM and were incubated with liver microsomes (0.1 mg/mL). Incubations were conducted at 37° C. in a shaking water bath for 10 minutes (microsomes). Incubation durations were selected based on time course study (microsomes) or published literature (recombinant enzymes). Prepared samples were analyzed using LC-MS/MS.

[4] = read-out: % inhibition from control HSD-5 (10 uM)
[5] = 10 μM inhibitor, purified AKR1C3 TLC based enzyme assay, read-out: AKR1C3 inhibition at 10 μM
[6] = HLM Phase I + II, read-out: HLM Phase I + II CLint
[7] = HLM Phase I, read-out: HLM Phase I CLint

T3 sequence (Q92731 whole entry, species assumed): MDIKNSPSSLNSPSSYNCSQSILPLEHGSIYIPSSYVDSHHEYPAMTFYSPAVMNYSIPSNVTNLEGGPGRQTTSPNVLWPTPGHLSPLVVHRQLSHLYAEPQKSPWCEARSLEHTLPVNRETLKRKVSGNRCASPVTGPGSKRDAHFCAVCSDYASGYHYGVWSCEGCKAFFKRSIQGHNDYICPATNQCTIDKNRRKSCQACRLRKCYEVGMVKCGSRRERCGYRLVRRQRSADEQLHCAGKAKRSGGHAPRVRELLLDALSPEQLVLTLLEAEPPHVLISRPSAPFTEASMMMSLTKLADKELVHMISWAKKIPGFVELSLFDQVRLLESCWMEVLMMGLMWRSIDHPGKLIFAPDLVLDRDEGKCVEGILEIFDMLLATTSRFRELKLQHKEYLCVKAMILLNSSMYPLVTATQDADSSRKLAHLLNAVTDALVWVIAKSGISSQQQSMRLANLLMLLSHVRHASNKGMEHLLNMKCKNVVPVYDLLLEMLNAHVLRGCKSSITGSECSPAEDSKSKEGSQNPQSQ
Chain of ER-β (Q92731 264-498 limits assumed, species assumed): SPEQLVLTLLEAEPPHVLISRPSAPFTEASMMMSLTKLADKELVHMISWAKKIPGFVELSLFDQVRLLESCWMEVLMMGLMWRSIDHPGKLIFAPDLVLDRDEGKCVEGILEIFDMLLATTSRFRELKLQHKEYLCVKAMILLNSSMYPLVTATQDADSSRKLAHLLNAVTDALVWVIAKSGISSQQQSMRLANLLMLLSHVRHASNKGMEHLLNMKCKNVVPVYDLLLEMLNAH

Row | Compound | Ki (ER-α) [nM] | inhibition at 10 µM (AKR1C3 [1]; [4]) [%] | Ki (ER-β) [nM] | EC50 (ER-beta; agonist mode, drug alone) [nM] | IC50 (ER-beta) [nM] | EC50 (ER-alpha; agonist mode, drug alone) [nM] | IC50 (ER-alpha) [nM] | inhibition at 10 µM (AKR1C3 [1]; [5]) [%] | IC50 (AKR1C3 [2]) [nM] | HLM Phase I T-1/2 ([3]; HLM Phase I) | HLM Phase I + II T-1/2 ([3]; HLM Phase I + II) | microsomal CLint [3, 6] [µL/min/mg] | microsomal CLint [3, 7] [µL/min/mg] | HLM Phase I CLint ([3]; HLM Phase I) | Agonist ER-β (ER-beta; agonist mode, drug alone) | HLM Phase I + II CLint ([3]; HLM Phase I + II) [µL/min/mg] | Agonist ER-α (ER-alpha; agonist mode, drug alone)
1 | O=C(O)/C=C/c1cn(-c2ccc(O)cc2)c(=O)c2ccc(O)cc12 [Compound 15k] | > 151 | 12 | > 220 | – | – | – | – | – | – | – | – | – | – | – | – | – | –
2 | O=c1c2ccc(O)cc2c(-c2ccc(O)cc2)cn1-c1ccc(O)cc1 [Compound 6, 6-hydroxy-2,4-bis(4-hydroxyphenyl)isoquinolin-1(2H)-one] | 1420 | 0 | 56.2 | > 10000 | 1950 | > 10000 | > 10000 | 0 | – | – | – | – | – | – | – | – | –
3 | O=c1c2c(O)cc(O)cc2c(-c2ccccc2)cn1-c1ccc(O)cc1 [Compound 15h, 6,8-dihydroxy-2-(4-hydroxyphenyl)-4-phenylisoquinolin-1(2H)-one] | – | 0 | 3.03 | > 10000 | 53.4 | > 10000 | 2030 | – | 6640 | 87.1 min | 11.4 min | 60.7 | 7.9 | – | – | – | –
4 | O=c1c2ccc(O)cc2c(-c2ccc(O)cc2)cn1-c1ccc(CBr)cc1 [Compound 11, 2-(4-bromomethyl)phenyl-6-hydroxy-4-(4-hydroxyphenyl)isoquinolin-1(2H)-one] | – | 55 | > 2200 | > 10000 | > 10000 | > 10000 | > 10000 | 55 | 5180 | 8.23 min and 5.90 min | 5.0 min | 138 | 84.1 | 119 µL/min/mg | – | – | –
5 | O=c1c2c(O)cc(O)cc2c(Br)cn1-c1cccc(O)c1 [ZW-315-047] | 503 | 30 | 7.23 | – | 2210 | – | 1720 | – | – | 41.58 min and 33.55 min and 35.5 min and 29.3 min | 1.56 min and 1.5 min | 442 | 16 | 20.16 µL/min/mg and 19.5 µL/min/mg and 23.7 µL/min/mg | Partial agonist | 460 | Partial agonist
6 | COc1ccc(-c2cn(-c3ccc(O)cc3)c(=O)c3c(O)cc(O)cc23)cc1 [Compound 15g, 6,8-dihydroxy-2-(4-hydroxyphenyl)-4-(4-methoxyphenyl)isoquinolin-1(2H)-one] | – | 40 | 2.77 | > 10000 | 22.4 | – | – | – | 4520 | 16.5 min and 19.32 min | 1.6 min | 422 | 42.1 | 35.8 µL/min/mg | – | – | –
7 | COc1ccc(-n2cc(-c3ccc(C(F)(F)F)cc3)c3cc(OC)ccc3c2=O)cc1 [Compound 35, 6-methoxy-2-(4-methoxyphenyl)-4-(4-(trifluoromethyl)phenyl)isoquinolin-1(2H)-one] | > 1510 | 0 | > 2200 | > 10000 | > 10000 | > 10000 | > 10000 | 0 | – | – | – | – | – | – | – | – | –
8 | COc1ccc(-c2cn(-c3ccc(O)cc3)c(=O)c3ccc(O)cc23)cc1 [Compound 15b] | 2100 | 47 | 252 | > 10000 | 128 | > 10000 | > 10000 | – | – | 28.3 min | 3.7 min | 188 | 24.5 | – | – | – | –
9 | COc1ccc(-c2cn(-c3ccc(CO)cc3)c(=O)c3ccc(OC)cc23)cc1 [Compound 10, 2-(4-hydroxymethyl)phenyl-6-methoxy-4-(4-methoxyphenyl)-isoquinolin-1(2H)-one] | > 1510 | 17 | > 2200 | > 10000 | > 10000 | > 10000 | > 10000 | 17 | – | – | – | – | – | – | – | – | –
10 | CCOC(=O)/C=C/c1cn(-c2ccc(OC)cc2)c(=O)c2c(O)cc(OC)cc12 [Compound 15j] | > 1510 | 10 | > 2200 | > 10000 | > 10000 | > 10000 | > 10000 | – | – | – | – | – | – | – | – | – | –
11 | O=c1c2ccc(O)cc2c(-c2ccc(C(F)(F)F)cc2)cn1-c1ccc(F)cc1 [Compound 34, 2-(4-fluorophenyl)-6-hydroxy-4-(4-(trifluoromethyl)phenyl)isoquinolin-1(2H)-one] | > 1510 | 10 | > 2200 | > 10000 | > 10000 | > 10000 | > 10000 | 10 | – | – | – | – | – | – | – | – | –

Reference: US20130116277A1, “ALDO-KETO REDUCTASE SUBFAMILY 1C3 (AKR1C3) INHIBITORS” (priority 2007, published 2013)
